In patent US5808065A, “Pyridazinone derivatives and processes for preparing the same” (Tanabe Seiyaku Co., Ltd., priority 1995, dated 1998):

What was measured:
[1] = Side Effect to Circulatory System (normal awakened rats, tail-cuff method); type: in vivo; conditions: 30 mg/kg/10 ml orally, before and 2 hours after administration
Method: One experimental group consisted of 4 rats. Each compound to be tested was suspended in purified water by using a small amount of Tween 80 (trade name, produced by Nacalai Tesque Co.), and a dose of 30 mg/kg/10 ml was administered orally to normal awakened rats. Systolic blood pressures and heart rates before administration and 2 hours after administration were examined. The systolic blood pressures and the heart rates were measured by the tail-cuff method (KN-210, trade name, produced by Natsume Seisakusho) under conditions of pretreatment at 40° C. for 15 minutes.
According to the following equations, the respective changing rates were calculated. [formula]

[2] = Antinephritic Action (protein excretion inhibition in nephritis induced with nephrotoxic serum (NTS)); type: in vivo, male WKY rats; conditions: 30 mg/kg/10 ml orally twice a day for 8 days; urine collected for 24 hours on the seventh day; 6 rats per group
Method: Rabbits were immunized several times with an adjuvant and a renal glomerular basement membrane fraction obtained from WKY rats, and then whole blood was collected from the rabbits to obtain a nephrotoxic serum (NTS). This NTS was diluted by 50 times with physiological saline, and to male WKY rats of 8 weeks old, 2.5 ml of the diluted NTS per 1 kg of body weight was injected intravenously to induce nephritis. To a normal group, the same amount of physiological saline was administered intravenously. One experimental group consisted of 6 rats. Each compound to be tested was suspended in purified water by using a small amount of Tween 80 (trade name, produced by Nacalai Tesque Co.), and a dose of 30 mg/kg/10 ml was orally administered twice a day for continuous 8 days. To a normal group and a control group, the same amount of purified water was administered orally. On the seventh day, the rats were placed in a metabolic cage, and urine was collected for 24 hours. By measuring the concentrations of protein in urine by the sulfosalicylic acid method, the amounts of excreted protein (mg/day) were determined, and protein excretion-inhibiting rates were calculated by the following equation. [formula]

[3] = system: mice; assay: Toxicity (death of mice observed for 3 days); type: in vivo
Excerpt: The desired compound (I) of the present invention has low toxicity.

| SMILES | Heart rate-changing rate [1] | Systolic blood pressure-changing rate [1] | Inhibition rate (protein excretion-inhibiting rate) [2] [%] | death ([3]; mouse, in vivo, ip, 300 mg/kg) | death ([3]; orally, 1,000 mg/kg, observed for 3 days) |
| --- | --- | --- | --- | --- | --- |
| O=C(NCCCOc1ccc(-c2ccc(=O)[nH]n2)cc1)c1cccnc1 [Example 36, 6-[4-(3-(pyridin-3-ylcarbonylamino)propoxy)phenyl]pyridazin-3(2H)-one] | 1 Δ% | 0 Δ% | 89.0 | – | – |
| Cl.O=C(NCCCCc1ccc(-c2ccc(=O)[nH]n2)cc1)c1cccnc1 [Example 69, 6-[4-(4-(pyridin-3-ylcarbonylamino)butyl)phenyl]pyridazin-3(2H)-one hydrochloride] | – | – | 82.2 | no case of death was observed | no case of death was observed |
| CC1CC(=O)NN=C1c1ccc(CCNC(=O)c2cccnc2)cc1 (stereo not drawn) [Known compound, 5-methyl-6-(4-[2-(pyridin-3-ylcarbonylamino)ethyl]phenyl)-4,5-dihydropyridazin-3 (2H)-one, reference compound] | 18 Δ% | -7 Δ% | – | – | – |
| O=C(NCCCCc1ccc(-c2ccc(=O)[nH]n2)cc1)c1cccnc1 [Example 30, 6-[4-(4-(pyridin-3-ylcarbonylamino)butyl)phenyl]pyridazin-3(2H)-one] | 3 Δ% | -2 Δ% | 82.5 | – | – |
| Nc1ncccc1C(=O)NCCCCc1ccc(-c2ccc(=O)[nH]n2)cc1 [Example 70] | – | – | 74.1 | – | – |
| C=CS(=O)(=O)NCCCc1ccc(-c2ccc(=O)[nH]n2)cc1 [Example 52-(4), 6-[4-(3-vinylsulfonylaminopropyl)phenyl]-pyridazin-3(2H)-one] | – | – | 74.6 | – | – |
| O=C(NCCCc1ccc(-c2ccc(=O)[nH]n2)cc1)c1cccnc1 [Example 31] | 7 Δ% | 0 Δ% | – | – | – |
| Nc1ncccc1C(=O)NCCCCc1ccc(-c2ccc(=O)[nH]n2)cc1 [Example 33] | 2 Δ% | 1 Δ% | 85.7 | – | – |
| Cc1ncccc1C(=O)NCCCCc1ccc(-c2ccc(=O)[nH]n2)cc1 [Example 32] | 5 Δ% | -2 Δ% | 64.3 | – | – |
